Data published in patent US10870647B2, “Imidazopyridine derivative, method for preparing same, and pharmaceutical composition containing same as active ingredient for preventing or treating cancer” (DAEGU-GYEONGBUK MEDICAL INNOVATION FOUNDATION, priority 2016, dated 2020).

What was measured:
Ret^wt (Ba/F3) = target: T1, Ret^wt (Ba/F3) (Homo sapiens, UniProt P07949); assay: Cancer cell proliferation inhibition, MTS assay, 72 hours; type: cell-based; settings: read-out: Ret^wt (Ba/F3) IC50
T1 construct: candidates are KIF5B, CCDC6, TEL (ETV6), or none (full-length RET)
Procedure, shortened: (§1)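 Cells seeded at 3,000/well were cultured 24 h, then exposed 72 h to serially diluted compound from 50 μM top (0.05% DMSO). Viability was read by MTS/PMS at OD450 after 2 h at 37°C. IC50 was taken as 50% proliferation inhibition versus solvent control, from three data sets.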

Ret^V804M (Ba/F3) = target: T2, Ret^V804M (Ba/F3) (Homo sapiens, UniProt P07949, V804M, cells depend on it, form not given); assay: as above; type: cell-based; settings: read-out: Ret^V804M (Ba/F3) IC50
T2 construct: candidates are KIF5B, CCDC6, TEL (ETV6), or none (full-length RET)
Procedure, shortened: as §1

SK-MEL-28 = assay: as above; type: cell-based; settings: Homo sapiens
Procedure, shortened: as §1

Huh7 = assay: as above; type: cell-based; settings: Homo sapiens, Huh-7
Procedure, shortened: as §1

T315I (Ba/F3) = target: T3, T315I (Ba/F3) (Homo sapiens, UniProt P00519, T315I, cells depend on it); assay: Cancer cell proliferation inhibition, CCK-8, 72 hours; type: cell-based; settings: read-out: T315I (Ba/F3) IC50
T3 construct: fused on or other part: P11274 (Breakpoint cluster region protein)
Procedure, shortened: (§2)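 A375 cells (2×10^3/well) attached overnight, then received 9 three-fold dilutions (0.0015-10 μM). K562 and Ba/F3-T315I (1×10^4/well) were given 9-point series (3-fold and 5-fold respectively), final 0-10 μM. After 72 h at 37°C, CCK-8 was added for 2 h; blank-subtracted OD450 gave IC50.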

A375 = assay: as above; type: cell-based; settings: Homo sapiens, A-375, 72 h
Procedure, shortened: as §2

K562 = assay: as above; type: cell-based; settings: Homo sapiens, K562, 72 h
Procedure, shortened: as §2

M-NFS-60 = assay: as above; type: cell-based
Procedure, shortened: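 Cells were grown in RPMI with 10% FBS, 0.05 mM 2-mercaptoethanol and human M-CSF, and seeded at 20000 cells/well. Compounds were added from a 3-fold DMSO dilution series topping at 1968 nM (dilution-plate concentration; 11 points including DMSO control). After 72 h at 37 °C, CCK-8 was added for 2 h and OD450 read.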

MDA-MB-231 = assay: Real time cell proliferation, IncuCyte ZOOM, 72 hours; type: cell-based; settings: Homo sapiens, MDA-MB-231, 72 h
RET(V804M) = target: T4, RET(V804M) (Homo sapiens, UniProt P07949, V804M); assay: Enzyme inhibitory activity (Kd), Reaction Biology Co.; type: binding
T4 construct: purchased Reaction Biology Co
Description: (§3) The following experiment was performed to evaluate the enzyme inhibitory activity of the compound of the present invention.
(§4) Particularly, the enzyme inhibitory activity of the compound of the present invention against BLK, CDK11, CHEK1, CSF1R, EPHB6, FGFR4, FGR, FLT3, FYN, GCN2 (Kin.Dom.2, S808G), HCK, JAK2 (JH1domain-catalytic), LCK, LOK, LYN, RET, RET (V804M), SRC and YES was investigated by Reaction Biology Co. The results are shown in Table 2 below.

RET = target: T5, RET (Homo sapiens, UniProt P07949); assay: as above; type: binding
T5 construct: purchased Reaction Biology Co
Description: as §3, §4

T1 sequence (P07949 whole entry, change not shown): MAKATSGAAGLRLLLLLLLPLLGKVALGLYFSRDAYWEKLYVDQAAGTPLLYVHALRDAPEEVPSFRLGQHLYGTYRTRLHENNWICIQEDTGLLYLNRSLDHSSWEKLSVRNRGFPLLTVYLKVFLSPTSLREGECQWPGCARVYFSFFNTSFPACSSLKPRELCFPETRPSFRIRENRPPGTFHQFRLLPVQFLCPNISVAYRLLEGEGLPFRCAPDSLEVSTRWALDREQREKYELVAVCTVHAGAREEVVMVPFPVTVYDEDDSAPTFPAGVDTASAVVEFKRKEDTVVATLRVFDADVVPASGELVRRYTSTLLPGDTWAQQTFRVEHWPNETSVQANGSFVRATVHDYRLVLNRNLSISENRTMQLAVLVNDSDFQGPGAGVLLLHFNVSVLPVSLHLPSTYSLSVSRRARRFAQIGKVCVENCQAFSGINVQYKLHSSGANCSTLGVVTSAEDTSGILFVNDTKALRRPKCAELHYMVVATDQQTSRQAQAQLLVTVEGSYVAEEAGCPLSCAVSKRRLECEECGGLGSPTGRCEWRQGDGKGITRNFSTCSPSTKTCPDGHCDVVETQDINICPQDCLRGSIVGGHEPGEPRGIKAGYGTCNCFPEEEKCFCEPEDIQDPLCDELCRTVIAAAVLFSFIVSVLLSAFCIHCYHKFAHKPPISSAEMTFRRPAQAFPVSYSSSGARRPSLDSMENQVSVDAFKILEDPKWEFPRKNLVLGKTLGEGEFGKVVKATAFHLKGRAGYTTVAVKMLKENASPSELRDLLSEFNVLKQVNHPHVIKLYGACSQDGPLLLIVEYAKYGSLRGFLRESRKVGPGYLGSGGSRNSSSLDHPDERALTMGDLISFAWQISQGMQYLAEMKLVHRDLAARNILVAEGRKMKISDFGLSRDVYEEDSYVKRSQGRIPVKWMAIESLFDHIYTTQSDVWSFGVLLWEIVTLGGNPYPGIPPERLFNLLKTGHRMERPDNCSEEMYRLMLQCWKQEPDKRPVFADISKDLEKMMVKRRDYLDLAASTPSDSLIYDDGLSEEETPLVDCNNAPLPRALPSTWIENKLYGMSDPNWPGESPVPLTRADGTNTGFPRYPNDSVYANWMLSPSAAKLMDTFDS
T2 sequence (P07949 whole entry V804M, form open): as the sequence (P07949 whole entry, change not shown) above, with V804M counted along it
T4 sequence (P07949 29-1114 V804M): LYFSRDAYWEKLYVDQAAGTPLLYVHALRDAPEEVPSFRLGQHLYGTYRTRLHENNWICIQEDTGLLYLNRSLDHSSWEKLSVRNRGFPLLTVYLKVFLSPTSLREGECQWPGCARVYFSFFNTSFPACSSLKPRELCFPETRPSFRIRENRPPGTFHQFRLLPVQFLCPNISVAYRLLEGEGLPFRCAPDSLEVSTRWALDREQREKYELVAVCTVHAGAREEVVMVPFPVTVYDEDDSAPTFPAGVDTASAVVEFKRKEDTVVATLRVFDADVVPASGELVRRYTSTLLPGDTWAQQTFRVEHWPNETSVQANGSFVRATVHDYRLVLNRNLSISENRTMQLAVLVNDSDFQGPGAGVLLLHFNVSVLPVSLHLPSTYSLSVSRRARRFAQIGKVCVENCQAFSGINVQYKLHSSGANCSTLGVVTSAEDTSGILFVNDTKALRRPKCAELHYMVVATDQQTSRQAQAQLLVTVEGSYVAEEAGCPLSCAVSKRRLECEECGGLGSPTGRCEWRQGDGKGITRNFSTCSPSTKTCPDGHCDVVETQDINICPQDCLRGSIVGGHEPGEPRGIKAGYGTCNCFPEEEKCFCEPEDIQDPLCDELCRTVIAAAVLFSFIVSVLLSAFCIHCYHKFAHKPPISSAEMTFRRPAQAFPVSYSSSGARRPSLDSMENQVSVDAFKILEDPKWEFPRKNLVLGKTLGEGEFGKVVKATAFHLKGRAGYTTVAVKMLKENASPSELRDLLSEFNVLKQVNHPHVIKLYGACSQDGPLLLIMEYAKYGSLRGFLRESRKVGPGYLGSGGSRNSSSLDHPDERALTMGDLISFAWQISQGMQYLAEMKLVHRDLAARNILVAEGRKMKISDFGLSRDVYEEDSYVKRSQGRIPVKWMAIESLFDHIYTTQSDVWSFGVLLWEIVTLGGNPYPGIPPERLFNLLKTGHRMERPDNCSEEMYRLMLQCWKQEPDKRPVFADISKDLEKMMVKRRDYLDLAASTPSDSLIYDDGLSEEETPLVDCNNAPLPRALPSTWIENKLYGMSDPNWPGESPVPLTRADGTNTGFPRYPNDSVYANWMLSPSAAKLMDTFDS
T5 sequence (P07949 29-1114): as the sequence (P07949 29-1114 V804M) above, with M776V counted along it

SMILES | GI50 (Ret^wt (Ba/F3)) [nM] | GI50 (Ret^V804M (Ba/F3)) [nM] | IC50 (SK-MEL-28) [nM] | IC50 (Huh7) [nM] | GI50 (T315I (Ba/F3)) [nM] | IC50 (A375) [nM] | IC50 (K562) [nM] | IC50 (M-NFS-60) [nM] | IC50 (MDA-MB-231) [nM] | Kd (RET(V804M)) [nM] | Kd (RET) [nM]
COc1cc(NC(=O)c2ccc(C)c(C#Cc3cnc4c(Nc5cnn(C)c5)cccn34)c2)cc(OC)c1 [Example 3, N-(3,5-dimethoxyphenyl)-4-methyl-3-((8-((1-methyl-1H-pyrazol-4-yl)amino)imidazo[1,2-a]pyridin-3-yl)ethynyl)benzamide] | 251 | 737 | > 10000 | 2340 | 164 | > 10000 | < 1 | 8.22 | > 10000 |  | 
COc1ccc(NC(=O)c2ccc(C)c(C#Cc3cnc4c(Nc5cnn(C)c5)cccn34)c2)cc1F [Example 4, N-(3-fluoro-4-methoxyphenyl)-4-methyl-3-((8-((1-methyl-1H-pyrazol-4-yl)amino)imidazo[1,2-a]pyridin-3-yl)ethynyl)benzamide] | 1910 |  | > 10000 | 6020 | > 10000 | > 10000 | < 1 |  | > 10000 |  | 
Cc1ccc(C(=O)Nc2ccc(CN3CCN(C)CC3)c(C(F)(F)F)c2)cc1C#Cc1cnc2c(Nc3ccccc3N)cccn12 [Example 5, 3-((8-((2-aminophenyl)amino)imidazo[1,2-a]pyridin-3-yl)ethynyl)-4-methyl-N-(4-((4-methylpiperazin-1-yl)methyl)-3-(trifluoromethyl)phenyl)benzamide] | 350 | 2380 | 1220 | 6190 | 1210 | > 10000 | 56 |  | > 10000 | 6 | 4.6
Cc1ccc(C(=O)Nc2cccc(F)c2)cc1C#Cc1cnc2c(Nc3cnn(C)c3)cccn12 [Example 6, N-(3-fluorophenyl)-4-methyl-3-((8-((1-methyl-1H-pyrazol-4-yl)amino)imidazo[1,2-a]pyridin-3-yl)ethynyl)benzamide] | 12800 |  | > 10000 | 6260 | 8440 | > 10000 | 4 | 6.82 | > 10000 |  | 
